What all share (format): cell-based
For test [1], the system named is MEK. Put plainly: MEK phosphorylation (S217/221) in SKOV3 cells, immunoblot and densitometry. As to the method:
Cells were detached from their culture vessels by brief trypsinization, suspended in complete media and centrifuged at 250×g for 10 min at room temperature. The cell pellets were suspended in Dulbeco's phosphate buffered saline (DPBS) and re-centrifuged for a total of three washes. The cells were then re-suspended at 3.33E5/ml in 24 ml of either RPMI containing 0.5% BSA (Sigma Chem. Co. #A0336) (RPMI/BSA) or the conditioned media of growing NIH3T3 fibroblasts (10% FBS in DMEM) supplemented with 10 ng/ml vascular endothelial growth factor (VEGF) (CMN). The cells were then treated with or without 100 ug/ml soluble hyaluronic acid (HA; human umbilical, Calbiochem #385902) for 30 min at 37° C. under 5% CO2. Aliquots representing 2E6 cells were then plated into 10 cm culture dishes and A6 added to yield final concentrations of 0, 10, 100 and 1000 nM. The cells were cultured overnight (18 hr) at 37° C. under 5% CO2.
After 18 hr of treatment, the media were aspirated from the 10 cm dishes and saved. The plates were washed 3 times with 4 ml of ice-cold DPBS which were pooled with the reserved non-adherent cells. The non-adherent cells were centrifuged at 250×g for 10 min at 4° C., washed twice with cold DPBS, drained and lysed in 50 ul of cold RIPA buffer (ThermoScientific #89901) containing cocktails of broad spectrum phosphatase inhibitors (Calbiochem #524625; used at 2× final concentration) and protease inhibitors (Sigma #P8340) (RIPA/inh.). The 10 cm dishes were drained of remaining wash and the adherent cells lysed by scraping in 200 μL of cold RIPA/inh. For each test condition, the lysates of the non-adherent and adherent populations were combined, vortexed and then centrifuged at 14,000 rpm at 4° C. for 20 min. Aliquots of the cleared lysates were frozen at −80° C. immediately. A small aliquot was reserved for total protein analysis using a BCA Protein Assay Kit (Calbiochem #71285-3).
Samples representing 20 μg of total protein of each lysate were solubilized in the presence of 50 mM Tris pH 6.8, 10% glycerol, 2% SDS and 100 mM DTT for 5 min at 95° C. and then loaded onto 10-20% acrylamide gels (BioRad #345-0044, Tris-HCl, 1 mm, 26 well, 15 μL/well). Electrophoresis was performed using Laemli electrophoresis buffer (0.1% SDS, 25 mM Tris, 192 mM glycine) at 200 V, constant voltage, for one hour. Upon completion of electrophoresis, the proteins were transferred to Immun-Blot PVDF membranes (BioRad #162-0238) in ice-cold 20% methanol in 25 mM Tris, 192 mM glycine for 2 hr at 0.5 Amps, constant current/blotting apparatus. […]
The integrated densities (id) of the bands of interest were measured using Image J software (NIH). […]

Test [2] deals with T1, CD44 (Homo sapiens, UniProt P16070).
T1 construct: endogenous in cells; host or cells: SKOV3 cells
Put plainly: Dimerization of CD44 in SKOV3 cells, anti-CD44 B-F24 immunoblot. As to conditions: SKOV3 cultured 20 hr with 1 or 10 μM Å6, non-reducing. As to the method: In FIG. 13 SKOV3 cells were cultured for 20 hr with no additions, 1 or 10 μM Å6 or 100 ng/ml PMA. Triton X-100 lysates were generated and further solubilized in SDS-PAGE sample buffer under non-reducing conditions. Aliquots representing 7.5 μg of cellular protein were subjected to SDS-PAGE followed by immunoblot analysis with the anti-CD44 murine monoclonal B-F24. The presence of stained higher molecular weight bands can be indicative of CD44 dimers and/or oligomers.
(In western blotting, separated proteins are transferred to a membrane and probed.)

In test [3] the test system is SKOV3 cells. Put plainly: Adhesion of SKOV3 cells to hyaluronic acid. As to conditions: immobilized HA; 1 or 10 uM Å6; 20 ng/ml IM7. As to the method:
In FIG. 11 SKOV3 cells were cultured overnight with or without 10 μM Å6 or 100 ng/ml PMA. The cells were then detached, washed and loaded with 20 μg/ml CFDA-SE for 30 min at 37° C. After washing, the cells were resuspended in PBS containing 10% FCS and triplicate aliquots representing 100,000 cells incubated for 30 min at room temperature with no additions, 1 or 10 uM Å6 or with 20 ng/ml IM7, a blocking anti-CD44 rat monoclonal antibody. The cells were then placed into microtiter wells that had been coated with 50 μL of 1 mg/mL HA overnight and blocked for 30 min with 10% FCS. The cells were allowed to adhere at room temperature for 30 minutes after which, the wells were decanted and washed 3 times. The fluorescence in each well was assessed (excit./emiss.: 460/536 nm) and the mean fluorescence values (+/standard deviation) of the triplicate determinations calculated.

In test [4] the target is T1, CD44. Nature of the test: FACs analysis of anti-CD44 (DF1485) binding to SKOV3 cells in the presence of Å6. The settings on record: pre-incubation with Å6 10 or 30 min on ice. As for the experimental part:
In FIG. 4 SKOV3 cells were detached from their culture flasks by brief trypsinization, washed twice with DPBS and incubated on ice with the indicated concentrations of Å6 for 10 min (exp. 1) or 30 min (exp. 2). Anti-CD44 (DF1485; Santa Cruz Biotech.) or its isotype control were then added to final concentrations of 1 μg/ml (exp. 1) or 1 and 0.5 μg/ml (exp. 2) and the cells incubated for 1 hr on ice. The cells were washed once and incubated with FITC-conjugated donkey anti-mouse IgG (H+L) for 30 minutes on ice and then subjected to FACS analysis with a Beckman Coulter Epics XL-MCL cytofluorimeter. Data analysis was performed using the Coulter Epics software. Note: Data are presented as mean fluorescence intensities (MnI) obtained with the MnI of the negative control in each experiment adjusted to <0.5 during data collection. […] Similar CD44 expression in ovarian cancer lines using different anti-CD44 antibodies is assessed in FIG. 5, for which the MnI values are summarized in FIG. 6.

T1 sequence (P16070 21-742): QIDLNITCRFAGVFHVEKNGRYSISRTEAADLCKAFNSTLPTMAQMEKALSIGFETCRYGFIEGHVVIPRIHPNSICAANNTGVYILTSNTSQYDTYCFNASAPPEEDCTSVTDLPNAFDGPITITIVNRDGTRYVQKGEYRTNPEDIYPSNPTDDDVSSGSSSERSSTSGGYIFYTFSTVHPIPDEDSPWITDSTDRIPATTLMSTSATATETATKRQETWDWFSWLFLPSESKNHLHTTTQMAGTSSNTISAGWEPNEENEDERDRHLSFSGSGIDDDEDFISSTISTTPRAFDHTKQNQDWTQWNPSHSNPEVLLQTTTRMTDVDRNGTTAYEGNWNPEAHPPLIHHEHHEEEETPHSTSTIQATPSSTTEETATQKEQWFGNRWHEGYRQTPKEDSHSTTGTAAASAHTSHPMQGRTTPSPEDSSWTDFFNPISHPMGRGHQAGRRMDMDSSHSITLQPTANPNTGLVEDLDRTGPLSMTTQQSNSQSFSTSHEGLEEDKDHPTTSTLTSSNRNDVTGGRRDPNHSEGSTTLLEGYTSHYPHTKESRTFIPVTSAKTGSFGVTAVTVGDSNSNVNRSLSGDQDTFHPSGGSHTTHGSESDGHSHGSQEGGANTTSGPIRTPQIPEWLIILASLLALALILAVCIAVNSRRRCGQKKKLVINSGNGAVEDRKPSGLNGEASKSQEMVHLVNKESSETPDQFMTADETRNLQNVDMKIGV

Regarding “acetyl-Lys-Pro-Ser-Ser-Pro-Pro-Glu-Glu-NH2 (Ac-KPSSPPEE-NH2) [Å6]”, the “CM/V-increased pMEK/MEK ratios” value in test [1] (CM/V) was “potentiated this response”. Moreover, in test [1] (under all conditions), the pMEK/MEK entry is “enhanced”. Also, in test [2], the “CD44 higher molecular weight bands (dimers and/or oligomers)” value was “higher molecular weight bands are formed”. For the same substance, the “SKOV3 binding to HA” value in test [3] is “enhanced”. The “binding of DF1485 anti-CD44 to SKOV3 cells (MnI)” value in test [4] is recorded as “inhibits the binding of DF1485 anti-CD44 to SKOV3 cells”.
